The values that follow come from publication PMC13224100, “Esterase-Responsive Mitochondria-Targeted Hydropersulfide Donors Mitigate Doxorubicin Cardiotoxicity While Preserving Anticancer Activity” (Angewandte Chemie (International ed. in English), 2025).

Each structure is given as a SMILES string. Marks after values point to notes of the source that are not given here. A value given as a limit tells only on which side of the number the result lay.

For data set [1], the system named is porcine liver esterase (PLE). Kind of data set: Quantification of RSSH release (RSS-HPE-AM yield) by HPLC. In kind it is biochemical. To be noted: pH 7.4 ammonium bicarbonate with DTPA, 37 °C; for RSSH yield (%) (formation of RSS-HPE-AM): HPE-IAM trapping; for RSSH yield (%) (formation of TPP-RSS-HPE-AM): trapping with 50 equiv of HPE-IAM. On the procedure: C. Quantification of RSSH Release by HPLC Analysis […]
(PLE, 1 U/mL) in ammonium bicarbonate buffer (100 mM, pH 7.4) containing diethylenetriaminepentaacetic acid (DTPA, 100 µM) at 37 °C. At designated time points, 200 μL aliquots were withdrawn and immediately quenched by mixing with 200 μL o f i c e-cold 0.1% formic acid. Samples were analyzed by HPLC using the same method and conditions as described above. Quantification of the trapped product (RSS-HPE-AM) was carried out using a calibration curve generated in-house with authentic standards. All experiments were performed in triplicate (n = 3), and data are reported as mean ± standard deviation (SD). […]
0.1% formic acid. Samples were analyzed by Agilent HPLC with UV detection using a C18 reverse-phase column (Phenomenex Luna C18, 4.6 × 150 mm, 5 μm) at 25 °C with a flow rate of 1.0 mL/min and an injection volume of 20 μL. The gradient elution (all solvents v/v, containing 0.1% trifluoroacetic acid) was as follows: 0–10 min, linear gradient from 90% water / 10% acetonitrile to 50% water / 50% acetonitrile; 10–18 min, to 10% water / 90% acetonitrile; 18–20 min, held at 10% water / 90% acetonitrile; 20–25 min, return to 90% water / 10% acetonitrile.
Absorbance was monitored at 275 nm. […]

A further data set deals with H9c2 cells. Kind of data set: Cytotoxicity of RSSH donors, CCK-8 assay. Format: cell-based. To be noted: up to 200 μM, 24 h. On the procedure:
We evaluated the cytoprotective effects of RSSH precursors against DOX-induced cardiotoxicity in H9c2 cardiomyoblasts. First, we assessed the cytotoxicity of the RSSH donors (AST-2, APT-1, AST-2-TPP, and APT-1-TPP) using the CCK-8 assay.[24] […] To evaluate cytoprotection, H9c2 cells were pretreated with RSSH donors for 4 h, followed by 24 h co-treatment with DOX (5 μM). As expected, DOX alone reduced cell viability to ca. 50% (Figure 4a). […] Although both compounds were protective, […]. […] A distinctive feature of our study is the direct comparison between mitochondria-targeted and non-targeted RSSH donors. […] TPP conjugation only modestly enhances the cytoprotective effects of RSSH donors under our experimental conditions. This outcome may reflect the intrinsic high efficacy of non-targeted RSSH donors, thereby limiting the additional benefit of mitochondrial targeting. […]
Cytotoxicity Assessment of Hydropersulfide Precursors in H9c2 and HepG2 cells Cell viability was measured using the Cell Counting Kit-8 (CCK-8, Dojindo).[7] H9c2 cardiomyoblast and HepG2 cells were seeded at a density of 8 × 10³ cells/well in a 96-well plate (flat-bottom, tissue culture-treated). […] All treatments were prepared with a final DMSO concentration of <0.01%. In the vehicle control group, cells were treated with medium (DMEM with 10% FBS) containing 0.01% DMSO only. Cells were incubated with RSSH donors for an additional 24 h. After 24 h, cells were gently washed three times with PBS, pH 7.4. […] The plates were then incubated for 1-2 h before measuring absorbance at 450 nm using a plate reader […]
calculated as: % Viability = 100 × [Abs₄₅₀ (treated cells) / Abs₄₅₀ (vehicle control)]. Each treatment condition was performed in 6 technical replicates per biological replicate, and the experiment was independently repeated three times (n = 3 biological replicates). Data are presented as mean ±
(1 picture or pasted object on this page, not shown here)
Figure S23. Impact of (A) AST-2 or AST-2-TPP (0-200 µM) and (B) APT-1 (0-200 µM) or APT -1-TPP (0-200 µM) on H9c2 cardiomyocytes. Impact of (C) AST-2 or AST-2-TPP (0-200 µM) and (D) APT-1 (0-200 µM) or APT-1-TPP (0-200 µM) on HepG2 (liver cancer) cells. Results are expressed as mean ± SEM, n≥3; *P<0.05, **P<0.01, ***P<0.001, ****P<0.0001. Ctl = vehicle (medium with 0.01% DMSO) treated cells. […]

A short description of data set [2]: Aqueous stability of RSSH precursors in PBS. Format: physicochemical. Here is the method:
We synthesized AST-2 as an esterase-sensitive RSSH donor via reaction of N-acetylpenicillamine methyl ester with methoxycarbonyl sulfenyl chloride in dichloromethane at 0 °C, affording the product in 72% yield (see Scheme S1). We first evaluated the aqueous stability of AST-2 in phosphate-buffered saline (PBS, pH 7.4) at 37 °C.
APT-1 was synthesized in 93% overall yield via a one-pot two-step sequence: N-acetylpenicillamine methyl ester was reacted with chlorocarbonylsulfenyl chloride to afford an S-perthiocarbonyl chloride intermediate, which was subsequently treated with 2-acetoxy-N-methylethan-1-aminium chloride in the presence of triethylamine (see Supporting Information).
We first evaluated the aqueous stability of the mitochondria-targeted analogs AST-2-TPP and APT-1-TPP. […] APT-1-TPP similarly retained excellent stability, with < 5% degradation over 41 h (Figure S1D).

With `CC(=O)NC(C(=O)N(C)CCC[P+](c1ccccc1)(c1ccccc1)c1ccccc1)C(C)(C)SSC(=O)N(C)CCOC(C)=O` (stereo not shown) [APT-1-TPP], in data set [1], the “RSSH yield (%) (formation of RSS-HPE-AM)” value came out at 95%. Also, in the data set with H9c2 cells, the “cytotoxicity of donor alone” value is recorded as “no measurable toxicity”. Besides, the “degradation (aqueous stability)” value in data set [2] (PBS pH 7.4, 37 °C, over 41 h) is under 5%.
With `COC(=O)C(NC(C)=O)C(C)(C)SSC(=O)N(C)CCOC(C)=O` (stereo not shown) [APT-1], the “RSSH yield (%) (formation of RSS-HPE-AM)” value in data set [1] stood at 92%. Also, in the data set on H9c2 cells, the “cytotoxicity of donor alone” value is given as “no measurable toxicity”. In addition, in data set [2] (PBS, 37 °C, over 48 h), the “decomposition (aqueous stability)” value was 7%.
In the case of `COC(=O)SSC(C)(C)C(NC(C)=O)C(=O)N(C)CCC[P+](c1ccccc1)(c1ccccc1)c1ccccc1` (stereo not shown) [AST-2-TPP], the “RSSH yield (%) (formation of TPP-RSS-HPE-AM)” value in data set [1] is given as 91%; in data set [1] (listed as AsT-2-TPP) it was 91^b) %. Also, the “cytotoxicity of donor alone” value with H9c2 cells is “no measurable toxicity”. Moreover, the “decomposition (aqueous stability)” value in data set [2] (PBS pH 7.4, 37 °C, over 7 h) is on record as “ca. 20%”.
As to `COC(=O)SSC(C)(C)C(NC(C)=O)C(=O)OC` (stereo not shown) [AST-2], the “RSSH yield (%) (formation of RSS-HPE-AM)” value in data set [1] is listed as 95%. Also, the “cytotoxicity of donor alone” value in the data set on H9c2 cells is “no measurable toxicity”. Also, the “decomposition (aqueous stability)” value in data set [2] (PBS pH 7.4, 37 °C, over 9 h) was 22%.
